# Assay results from patent US5998376A, “Substance P treatment for immunostimulation” (priority 1998, dated 1999).
# Assays:
# [1] = test system: melanoma B16 cancer cells; experiment: B16 melanoma massive challenge, survival; type: in vivo, mice; details: tumor-challenged mammals, aerosol therapy
# From the text: The mice were infected with 1×10^5 […] melanoma B16 cancer cells by tail vein injection.
# [2] = test system: spleen, thymus and bone marrow cells; experiment: Substance P aerosol therapy in JP-8 jet fuel exposed mice, cell numbers (FIGS. 1-3); type: in vivo, C57BL6 mice
# From the text: Since mice are nose-breathers, they were exposed to the aerosol/vapor mixture via nose-only presentation while they were held in individual loading tubes. The tubes were nose-fitted to receiving adaptors that originated from the common anodized aluminum exposure chamber (volume 0.3 m^3, IN-TOX, Albuquerque, N.Mex.). Noses were positioned in the exposure ports to minimize systemic absorption that might occur during total body exposure or through the process of self-grooming after exposure. The mice were rotated on a daily basis through the 24-adaptor positions of the exposure chamber. This was done to minimize proximity to the jet fuel source as a variable in exposure concentration or composition. Passive entrainment of the jet fuel aerosol/vapor mix and room air through the IN-TOX chamber was conducted by vacuum (15 liters/min). The vacuum was applied to the exposure chamber on the side opposite the fuel source. Animal exposure ports not in use were sealed during the exposure period. Longitudinal controls were sham-exposed in a manner identical to those receiving jet fuel, except that only room air was introduced into the exposure chamber. The exposure chamber was thoroughly cleaned prior to the longitudinal control group's exposure.
# The substance P aerosol therapy was performed at the completion of the JP-8 jet fuel exposure. The nebulizer was modified with clean hoses and a new sonication crucible. […] The substance P aerosol therapy was conducted for the same seven day period over a total time period of nine days as the JP-8 jet fuel exposure regimen.
# [3] = test system: lymphocyte subpopulations; experiment: Flow cytometric analyses (FACS) of immune organs, JP-8 exposed mice; type: in vivo, C57B16 mice
# Protocol: At 24 hours after the last exposure, the animals were sacrificed and the effects of exposure on the immune system examined. Immune organs (spleen, thymus, blood, lymph nodes and bone marrow) were recovered and analyzed for effects on organ weight, total cell numbers, immune cell populations (by differentials), and lymphocyte subpopulations (by flow cytometry). Assays were also performed to examine the effects of exposure on immune function. […] Similar effects on immune cell subpopulations were also observed in lymph nodes. In the thymus it appeared that the immature CD4^+ CD8^+ cells were differentially lost due to exposure. […] However, these effects are prevented or ameliorated by treatment of the animals with Substance P.
# Flow cytometric analyses (FACS): One- and two-color FACS analyses are performed using a Becton-Dickinson FACStar Plus flow cytometer. Cells are stained with the indicated monoclonal antibodies according to standard procedures (Harris et al., id). Cells alone and cells reacted with conjugated isotype control, irrelevant mAbs are used as controls. Data is presented as the percentage of cells staining positive for each individual mAb.
# [4] = JP-8 exposed mice, one micromolar aerosol 15 minutes
# [5] = JP-8 dose 0 + SP or antagonist aerosol
# [6] = JP-8 dose 1000 + SP or antagonist aerosol
# [7] = JP-8 dose 1000 + nSP (1 nanomolar substance P)
substance,measurement,setting,value
Substance P [SP],survival time,[1],enhance survival time
same,effect on spleen cell number (FIG. 1),"[2]; JP-8 500 or 2500 mg/m^3, 1 hour/day 7 days, one micromolar aerosol 15 minutes after each exposure",totally reverse the effect of the jet fuel on the spleen cell number
same,effect on bone marrow cells (FIG. 3),[2]; [4],augments the stimulation substantially
same,effect on thymus cell number (FIG. 2),[2]; [4],substantially reverses the effect on cell number
same,"BM CD3, cells staining positive",[3]; [5],12%
same,"BM CD4, cells staining positive",[3]; [5],11%
same,"BM CD8, cells staining positive",[3]; [5],1%
same,"BM CD45, cells staining positive",[3]; [5],48%
same,"Spleen CD3, cells staining positive",[3]; [5],42%
same,"Spleen CD4, cells staining positive",[3]; [5],26%
same,"Spleen CD8, cells staining positive",[3]; [5],11%
same,"Spleen CD45, cells staining positive",[3]; [5],23%
same,"Spleen MAC1, cells staining positive",[3]; [5],1%
same,"Thymus CD3, cells staining positive",[3]; [5],10%
same,"Thymus DN, cells staining positive",[3]; [5],7%
same,"Thymus DP, cells staining positive",[3]; [5],84%
same,"Thymus SP4, cells staining positive",[3]; [5],6%
same,"Thymus SP8, cells staining positive",[3]; [5],2%
same,"BM CD3, cells staining positive",[3]; JP-8 dose 250 + SP aerosol,13%
same,"BM CD4, cells staining positive",[3]; JP-8 dose 250 + SP aerosol,10%
same,"BM CD8, cells staining positive",[3]; JP-8 dose 250 + SP aerosol,3%
same,"BM CD45, cells staining positive",[3]; JP-8 dose 250 + SP aerosol,48%
same,"BM MAC1, cells staining positive",[3]; JP-8 dose 250 + SP aerosol,10%
same,"LN CD3, cells staining positive",[3]; JP-8 dose 250 + SP aerosol,85%
same,"LN CD4, cells staining positive",[3]; JP-8 dose 250 + SP aerosol,48%
same,"LN CD8, cells staining positive",[3]; JP-8 dose 250 + SP aerosol,12%
same,"LN CD45, cells staining positive",[3]; JP-8 dose 250 + SP aerosol,13%
same,"LN MAC1, cells staining positive",[3]; JP-8 dose 250 + SP aerosol,1%
same,"PBL CD3, cells staining positive",[3]; JP-8 dose 250 + SP aerosol,59%
same,"PBL CD4, cells staining positive",[3]; JP-8 dose 250 + SP aerosol,15%
same,"PBL CD8, cells staining positive",[3]; JP-8 dose 250 + SP aerosol,6%
same,"PBL CD45, cells staining positive",[3]; JP-8 dose 250 + SP aerosol,16%
same,"PBL MAC1, cells staining positive",[3]; JP-8 dose 250 + SP aerosol,1%
same,"Spleen CD3, cells staining positive",[3]; JP-8 dose 250 + SP aerosol,62%
same,"Spleen CD4, cells staining positive",[3]; JP-8 dose 250 + SP aerosol,27%
same,"Spleen CD8, cells staining positive",[3]; JP-8 dose 250 + SP aerosol,3%
same,"Spleen CD45, cells staining positive",[3]; JP-8 dose 250 + SP aerosol,21%
same,"Spleen MAC1, cells staining positive",[3]; JP-8 dose 250 + SP aerosol,1%
same,"Thymus CD3, cells staining positive",[3]; JP-8 dose 250 + SP aerosol,24%
same,"Thymus DN, cells staining positive",[3]; JP-8 dose 250 + SP aerosol,5%
same,"Thymus DP, cells staining positive",[3]; JP-8 dose 250 + SP aerosol,68%
same,"Thymus SP4, cells staining positive",[3]; JP-8 dose 250 + SP aerosol,22%
same,"Thymus SP8, cells staining positive",[3]; JP-8 dose 250 + SP aerosol,5%
same,"BM CD3, cells staining positive",[3]; [6],14%
same,"BM CD4, cells staining positive",[3]; [6],9%
same,"BM CD8, cells staining positive",[3]; [6],2%
same,"BM CD45, cells staining positive",[3]; [6],31%
same,"BM MAC1, cells staining positive",[3]; [6],26%
same,"LN CD3, cells staining positive",[3]; [6],86%
same,"LN CD4, cells staining positive",[3]; [6],29%
same,"LN CD8, cells staining positive",[3]; [6],11%
same,"LN CD45, cells staining positive",[3]; [6],22%
same,"LN MAC1, cells staining positive",[3]; [6],0%
same,"PBL CD3, cells staining positive",[3]; [6],61%
same,"PBL CD4, cells staining positive",[3]; [6],23%
same,"PBL CD8, cells staining positive",[3]; [6],10%
same,"PBL CD45, cells staining positive",[3]; [6],22%
same,"PBL MAC1, cells staining positive",[3]; [6],3%
same,"Spleen CD3, cells staining positive",[3]; [6],34%
same,"Spleen CD4, cells staining positive",[3]; [6],18%
same,"Spleen CD8, cells staining positive",[3]; [6],10%
same,"Spleen CD45, cells staining positive",[3]; [6],20%
same,"Spleen MAC1, cells staining positive",[3]; [6],5%
same,"Thymus CD3, cells staining positive",[3]; [6],20%
same,"Thymus DN, cells staining positive",[3]; [6],10%
same,"Thymus DP, cells staining positive",[3]; [6],65%
same,"Thymus SP4, cells staining positive",[3]; [6],16%
same,"Thymus SP8, cells staining positive",[3]; [6],6%
same,"BM CD3, cells staining positive",[3]; [7],13%
same,"BM CD4, cells staining positive",[3]; [7],10%
same,"BM CD8, cells staining positive",[3]; [7],3%
same,"BM CD45, cells staining positive",[3]; [7],43%
same,"BM MAC1, cells staining positive",[3]; [7],16%
same,"LN CD3, cells staining positive",[3]; [7],95%
same,"LN CD4, cells staining positive",[3]; [7],42%
same,"LN CD8, cells staining positive",[3]; [7],25%
same,"LN CD45, cells staining positive",[3]; [7],23%
same,"LN MAC1, cells staining positive",[3]; [7],0%
same,"PBL CD3, cells staining positive",[3]; [7],78%
same,"PBL CD4, cells staining positive",[3]; [7],25%
same,"PBL CD8, cells staining positive",[3]; [7],8%
same,"PBL CD45, cells staining positive",[3]; [7],29%
same,"PBL MAC1, cells staining positive",[3]; [7],2%
same,"Spleen CD3, cells staining positive",[3]; [7],60%
same,"Spleen CD4, cells staining positive",[3]; [7],15%
same,"Spleen CD8, cells staining positive",[3]; [7],5%
same,"Spleen CD45, cells staining positive",[3]; [7],41%
same,"Spleen MAC1, cells staining positive",[3]; [7],1%
same,"Thymus CD3, cells staining positive",[3]; [7],25%
same,"Thymus DN, cells staining positive",[3]; [7],7%
same,"Thymus DP, cells staining positive",[3]; [7],69%
same,"Thymus SP4, cells staining positive",[3]; [7],16%
same,"Thymus SP8, cells staining positive",[3]; [7],7%
same,"BM CD3, cells staining positive",[3]; JP-8 dose 2500 + SP aerosol,6%
same,"BM CD4, cells staining positive",[3]; JP-8 dose 2500 + SP aerosol,3%
same,"BM CD8, cells staining positive",[3]; JP-8 dose 2500 + SP aerosol,6%
same,"BM CD45, cells staining positive",[3]; JP-8 dose 2500 + SP aerosol,24%
same,"BM MAC1, cells staining positive",[3]; JP-8 dose 2500 + SP aerosol,34%
same,"Spleen CD3, cells staining positive",[3]; JP-8 dose 2500 + SP aerosol,38%
same,"Spleen CD4, cells staining positive",[3]; JP-8 dose 2500 + SP aerosol,26%
same,"Spleen CD8, cells staining positive",[3]; JP-8 dose 2500 + SP aerosol,14%
same,"Spleen CD45, cells staining positive",[3]; JP-8 dose 2500 + SP aerosol,31%
same,"Spleen MAC1, cells staining positive",[3]; JP-8 dose 2500 + SP aerosol,3%
same,"Thymus CD3, cells staining positive",[3]; JP-8 dose 2500 + SP aerosol,16%
same,"Thymus DN, cells staining positive",[3]; JP-8 dose 2500 + SP aerosol,19%
same,"Thymus DP, cells staining positive",[3]; JP-8 dose 2500 + SP aerosol,64%
same,"Thymus SP4, cells staining positive",[3]; JP-8 dose 2500 + SP aerosol,15%
same,"Thymus SP8, cells staining positive",[3]; JP-8 dose 2500 + SP aerosol,5%
